Experiment [1] deals with Staphylococcus aureus ATCC29213. Description: Minimal inhibitory concentration (MIC). Format: cell-based. Summed up:
(§1)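 Peritoneal exudate cells came from male C57BL/6J mice 3 days after i.p. zymosan A; cultured cells got compound (0.02–20 μM final) 1 h before TNFα (25 ng/ml) and supernatant pro MMP-9 was measured by ELISA after 24 h for IC50 against the TNFα-induced increase. MIC was measured against S. aureus ATCC29213.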

In experiment [2] the test system is pro MMP-9 protein. As to the kind of experiment: Inhibitory activity against proMMP-9 protein production (TNF α-stimulated mouse peritoneal exudate cells, ELISA). The class given is cell-based, C57BL/6J mice. As to conditions: relative activity when the value of Comparative Agent 1 (IC50 = 10.04 ± 4.11 μM) is 10, on the increase of pro MMP-9 by TNF α 25 ng/ml, 24 hours, read-out: IC50 (μM)*. The procedure, abridged:
as §1
(In general: ELISA stands for enzyme-linked immunosorbent assay.)

The subject of experiment [3] is MMP-9 production. As to conditions: background art, Non-Patent Document 3; read-out: 50% inhibitory concentration (IC50) value, MMP-9 production; cited from earlier work.

SMILES strings stand for the structures. pIC50: −log10 of the molar value. A value given as a limit tells only on which side of the number the result lay.

One may read the MIC as the lowest concentration that inhibits growth of the organism. A low value points to inhibition by little substance. What is called IC50 is the concentration that inhibits the measured activity by half.

For the compound `CC[C@H]1OC(=O)[C@H](C)[C@@H](O[C@H]2C[C@@](C)(OC)[C@@H](O)[C@H](C)O2)[C@H](C)[C@@H](O[C@@H]2O[C@H](C)C[C@@H](N3CCOCC3)[C@@H]2N(C)C)[C@@](C)(O)C[C@@H](C)CN(C)[C@H](C)[C@@H](O)[C@]1(C)O` [Example 213, 3′-dedimethylamino-2′-deoxy-2′-dimethylamino-3′-(4-morpholino)-9-deoxo-9a-aza-9a-methyl-9a-homoerythromycin A], the MIC in experiment [1] was more than 128 µg/mL. Also, the IC50 in experiment [2] amounted to 0.77 µM. The matching figures for `CC[C@H]1OC(=O)[C@H](C)[C@@H](O[C@H]2C[C@@](C)(OC)[C@@H](OC(C)=O)[C@H](C)O2)[C@H](C)[C@@H](O[C@@H]2O[C@H](C)C[C@H](N(C)CCN(C)C)[C@H]2O)[C@@](C)(OC)C[C@@H](C)C(=O)[C@H](C)[C@@H](O)[C@]1(C)O` [Example 214, 4″-O-acetyl-3′-N-demethyl-3′-N-(2-dimethylaminoethyl)-6-methylerythromycin A]: more than 128 µg/mL and 2.73 µM. The matching figures for `CC[C@H]1OC(=O)[C@H](C)[C@@H](O[C@H]2C[C@@](C)(OC)[C@@H](OC(C)=O)[C@H](C)O2)[C@H](C)[C@@H](O[C@@H]2O[C@H](C)C[C@@H](N3CCOCC3)[C@@H]2N(C)CCN(C)C)[C@@](C)(OC)C[C@@H](C)C(=O)[C@H](C)[C@@H](O)[C@]1(C)O` [Example 215]: more than 128 µg/mL and 1.21 µM. With `CC[C@H]1OC(=O)[C@H](C)[C@@H](O[C@H]2C[C@@](C)(OC)[C@@H](O)[C@H](C)O2)[C@H](C)[C@@H](O[C@@H]2O[C@H](C)C[C@@H](N3CCOCC3)[C@@H]2N(C)CCN(C)C)[C@@](C)(OC)C[C@@H](C)C(=O)[C@H](C)[C@@H](O)[C@]1(C)O` [Example 216], the MIC in experiment [1] is more than 128 µg/mL. Also, the IC50 in experiment [2] turned out to be 2.55 µM. As for `CC[C@H]1OC(=O)[C@H](C)[C@@H](O[C@H]2C[C@@](C)(OC)[C@@H](O)[C@H](C)O2)[C@H](C)[C@@H](O[C@@H]2O[C@H](C)C[C@H](N(C)C)[C@H]2O)[C@](C)(O)C[C@@H](C)/C(=N\OCOCCOC)[C@H](C)[C@@H](O)[C@]1(C)O` [roxithromycin], in experiment [3], the pIC50 was not above 5.00.

(Values after US8124744B2, “Macrolide derivatives” (Taisho Pharmaceutical Co., Ltd., priority 2006, dated 2012).)
